Laboratory results taken from patent US9079919B2 (HOFFMANN-LA ROCHE INC., priority 2011, dated 2015).
pIC50: −log10 of the molar value. Structures can show the parent of a compound that is named as a salt.

What was measured:
Assay type in all cases: cell-based
[1] = target: T1, BACE1 (Homo sapiens, UniProt P56817); test: Cellular Aβ-lowering assay b) (Abeta 40 AlphaLISA Assay); conditions: cellular assay b): HEK293 APP cells, Aβ40 in supernatant by AlphaLISA after 18-20 hrs; read-out: BACE1 cell act. Aβ40 IC50
T1 construct: Human HEK293 cells which are stably transfected with a vector expressing a cDNA of the human APP wt gene (APP695); endogenous in cells; host or cells: HEK293 cells stably transfected with human APP695 (wt)
T1 sequence (P56817 46-501): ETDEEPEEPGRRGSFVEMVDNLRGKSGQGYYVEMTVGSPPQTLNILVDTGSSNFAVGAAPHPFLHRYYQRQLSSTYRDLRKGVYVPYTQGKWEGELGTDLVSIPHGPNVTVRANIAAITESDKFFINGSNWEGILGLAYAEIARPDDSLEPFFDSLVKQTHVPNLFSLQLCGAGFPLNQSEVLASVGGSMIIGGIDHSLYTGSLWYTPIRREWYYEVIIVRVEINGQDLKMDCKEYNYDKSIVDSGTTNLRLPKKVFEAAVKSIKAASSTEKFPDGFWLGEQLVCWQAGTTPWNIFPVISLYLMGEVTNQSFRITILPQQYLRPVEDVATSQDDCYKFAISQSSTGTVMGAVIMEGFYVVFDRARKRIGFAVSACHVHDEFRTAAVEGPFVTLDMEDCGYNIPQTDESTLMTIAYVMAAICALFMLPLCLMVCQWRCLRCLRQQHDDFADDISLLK
Description: b) Alternatively, the Abeta 40 AlphaLISA Assay can be used. The HEK293 APP cells were seeded in 96 well Microtiter plates in cell culture medium (Iscove's, plus 10% (v/v) fetal bovine serum, penicillin/streptomycin) to about 80% confluency and the compounds were added at a 3× concentration in 1/3 volume of culture medium (final DMSO concentration was kept at 1% v/v). After 18-20 hrs incubation at 37° C. and 5% CO2 in a humidified incubator, the culture supernatants were harvested for the determination of Aβ 40 concentrations using Perkin-Elmer Human Amyloid beta 1-40 (high specificity) Kit (Cat#AL275C).
In a Perkin-Elmer White Optiplate-384 (Cat#6007290), 2 ul culture supernatants were combined with 2 μl of a 10× AlphaLISA Anti-hAβ Acceptor beads+Biotinylated Antibody Anti-Aβ 1-40 Mix (50 μg/mL/5 nM). After 1 hour room temperature incubation, 16 μl of a 1.25× preparation of Streptavidin (SA) Donor beads (25 μg/mL) were added and incubated for 30 minutes in the Dark. Light Emission at 615 nm was then recorded using EnVision-Alpha Reader. Levels of Aβ 40 in the culture supernatants were calculated as percentage of maximum signal (cells treated with 1% DMSO without inhibitor). The IC50 values were calculated using the Excel XLfit software.

[2] = target: T1, BACE1; test: Cellular Aβ-lowering assay a) (Aβ40 ELISA); conditions: cellular assay a): HEK293 cells expressing human APP695, Aβ40 in supernatant by ELISA after 18-20 hrs; read-out: BACE1 cell act. Aβ40 IC50
Description: a) Human HEK293 cells which are stably transfected with a vector expressing a cDNA of the human APP wt gene (APP695) were used to assess the potency of the compounds in a cellular assay. The cells were seeded in 96-well microtiter plates in cell culture medium (Iscove, plus 10% (v/v) fetal bovine serum, glutamine, penicillin/streptomycin) to about 80% confluence and the compounds were added at a 10× concentration in 1/10 volume of medium without FCS containing 8% DMSO (final concentration of DMSO was kept at 0.8% v/v). After 18-20 hrs incubation at 37° C. and 5% CO2 in a humidified incubator the culture supernatant was harvested for the determination of Aβ40 concentrations. 96 well ELISA plates (e.g., Nunc MaxiSorb) were coated with monoclonal antibody which specifically recognize the C-terminal end of Aβ40 (Brockhaus et al., NeuroReport 9, 1481-1486; 1998). After blocking of non-specific binding sites with e.g. 1% BSA and washing, the culture supernatants were added in suitable dilutions together with a horseradish peroxidase-coupled Aβ detection antibody (e.g., antibody 4G8, Senetek, Maryland Heights, Mo.) and incubated for 5 to 7 hrs. Subsequently the wells of the microtiter plate were washed extensively with Tris-buffered saline containing 0.05% Tween 20 and the assay was developed with tetramethylbenzidine/H2O2 in citric acid buffer. After stopping the reaction with one volume of 1N H2SO4 the reaction was measured in an ELISA reader at 450 nm wavelength. The concentrations of Aβ in the culture supernatants were calculated from a standard curve obtained with known amounts of pure Aβ peptide.

[3] = target: T2, BACE2 (Rattus norvegicus, UniProt Q6IE75); test: Assay for BACE inhibition by measuring cellular TMEM27 cleavage; conditions: INS-TMEM27 cells (INS1e-derived), shed human TMEM27 by ELISA; read-out: BACE2 cell act. IC50
T2 construct: endogenous cellular BACE2 in the Ins1e rat cell line; endogenous in cells; host or cells: INS-TMEM27 (INS1e-derived rat cell line with doxycycline-inducible full-length human TMEM27)
T2 sequence (Q6IE75 63-514): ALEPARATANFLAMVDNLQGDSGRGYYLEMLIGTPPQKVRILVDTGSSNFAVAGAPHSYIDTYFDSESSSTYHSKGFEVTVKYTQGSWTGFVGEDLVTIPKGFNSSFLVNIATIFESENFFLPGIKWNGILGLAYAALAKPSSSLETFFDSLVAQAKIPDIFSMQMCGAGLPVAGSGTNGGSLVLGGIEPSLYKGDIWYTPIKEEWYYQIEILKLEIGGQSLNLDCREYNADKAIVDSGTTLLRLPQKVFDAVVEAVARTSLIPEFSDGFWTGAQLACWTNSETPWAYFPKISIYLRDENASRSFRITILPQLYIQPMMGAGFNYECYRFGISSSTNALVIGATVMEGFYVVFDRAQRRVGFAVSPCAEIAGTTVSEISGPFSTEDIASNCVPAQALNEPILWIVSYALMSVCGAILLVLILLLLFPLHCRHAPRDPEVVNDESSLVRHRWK
Description: The assay uses the principle of inhibition of human TMEM27 cleavage by endogenous cellular BACE2 in the Ins1e rat cell line and shedding from the cell surface into the culture medium, followed by detection in an ELISA assay. Inhibition of BACE2 prevents the cleavage and shedding in a dose-dependent manner.
The stable cell line “INS-TMEM27” represents an INS1e-derived cell line with inducible expression (using the TetOn system) of full-length hTMEM27 in a doxycycline-dependent manner. The cells are cultured throughout the experiment in RPMI1640+ Glutamax (Invitrogen) Penicillin/Streptomycin, 10% Fetal bovine serum, […], […], 100 micrograms/ml G418 and 100 microgram/ml hygromycin and are grown inadherent culture at 37° C. in a standard CO2 cell culture incubator.
INS-TMEM27 cells are seeded in 96-well plates. After 2 days in culture, BACE2 inhibitor is added in a range of concentrations as required by the assay and after a further two hours, doxycycline is added to a final concentration of 500 ng/ml. The cells are incubated for a further 46 hours and the supernatant harvested for detection of shed TMEM27.
An ELISA assay (using a pair of mouse anti-human-TMEM27 antibodies, raised against the extracellular domain of TMEM27) is used for detection of TMEM27 in the culture medium. An EC50 for BACE2 inhibition is calculated using the ELISA readout for each inhibitor concentration with standard curve-fitting software such as XLFit for the Excel spreadsheet program.

Compound | pIC50 [1] | pIC50 [2] | pIC50 [3]
N#Cc1cncc(-c2ccc3c(c2)[C@@]2(CC3)N=C(N)OCC2(F)F)c1 [Example 11, (R)-5-(2′-Amino-5′,5′-difluoro-2,3,5′,6′-tetrahydrospiro[indene-1,4′-[1,3]oxazine]-6-yl)nicotinonitrile] | 5.47 | – | –
N#Cc1ccc(C(=O)Nc2ccc3c(c2)[C@@]2(CCS3)N=C(N)OCC2(F)F)nc1 [Example 43, (R)—N-(2-Amino-5,5-difluoro-5,6-dihydrospiro[[1,3]oxazine-4,4′-thiochroman]-6′-yl)-5-cyanopicolinamide] | – | 8.00 | 6.83
NC1=N[C@@]2(CCOc3ccc(NC(=O)c4ncc(Cl)cc4Cl)cc32)C(F)(F)COC1 [Example 51, (R)—N-(3′-Amino-6′,6′-difluoro-6′,7′-dihydro-2′H-spiro[chroman-4,5′-[1,4]oxazepine]-6-yl)-3,5-dichloropicolinamido] | – | 5.77 | 5.23
NC1=N[C@@]2(CCOc3ccc(-c4cc(Cl)cc(Cl)c4)cc32)C(F)(F)COC1 [Example 55, (R)-6-(3,5-Dichlorophenyl)-6′,6′-difluoro-6′,7′-dihydro-2′H-spiro[chroman-4,5′-[1,4]oxazepin]-3′-amine] | – | 5.42 | 4.98

Results, then the compound that gave them:

pIC50 [1] | pIC50 [2] | pIC50 [3] | Compound
5.35 | – | – | NC1=N[C@@]2(C[C@@]3(CCCOC3)Oc3ccc(-c4cncc(Cl)c4)cc32)C(F)(F)CO1 [Example 29, (2′R,4R)-6′-(5-Chloropyridin-3-yl)-5,5-difluoro-5,5″,6,6″-tetrahydro-4″H-dispiro[1,3-oxazine-4,4′-chromene-2′,3″-pyran]-2-amine formate]
5.18 | – | – | N#Cc1cccc(-c2ccc3c(c2)[C@@]2(C[C@@]4(CCCOC4)O3)N=C(N)OCC2(F)F)c1 [Example 30, 3-[(2′R,4R)-2-Amino-5,5-difluoro-5,5″,6,6″-tetrahydro-4″H-dispiro[1,3-oxazine-4,4′-chromene-2′,3″-pyran]-6′-yl]benzonitrile formate]
5.05 | – | – | NC1=N[C@@]2(C[C@]3(CCCOC3)Oc3ccc(-c4cncc(Cl)c4)cc32)C(F)(F)CO1 [Example 31, (2′S,4R)-6′-(5-Chloropyridin-3-yl)-5,5-difluoro-5,5″,6,6″-tetrahydro-4″H-dispiro[1,3-oxazine-4,4′-chromene-2′,3″-pyran]-2-amine formate]
5.29 | – | – | N#Cc1ccc(C(=O)Nc2ccc3c(c2)[C@@]2(C[C@@]4(CCCOC4)O3)N=C(N)OCC2(F)F)nc1 [Example 44, N-[(2′R,4R)-2-Amino-5,5-difluoro-5,5″,6,6″-tetrahydro-4″H-dispiro[1,3-oxazine-4,4′-chromene-2′,3″-pyran]-6′-yl]-5-cyanopyridine-2-carboxamide]
